Results as given in paper PMC10175918 (Communications Biology, 2023).
Like-named read-outs stand apart in the source and are kept apart here.

Assays:
Experiment in all cases: TGFα-shedding assay-based GPCR screening with chimeric Gα subunit proteins
Type in all cases: cell-based
348 GPCRs [1] = biological target: T1, 348 GPCRs (Homo sapiens, UniProt Q13639); details: 10µM, Favipiravir 100μM
T1 construct: expressed in transfected cells; host or cells: HEK293A

348 GPCRs [2] = biological target: T2, 348 GPCRs (Homo sapiens, UniProt O14804); details: 10µM, Favipiravir 100μM
T2 construct: expressed in transfected cells; host or cells: HEK293A
T2 sequence (O14804 1-337): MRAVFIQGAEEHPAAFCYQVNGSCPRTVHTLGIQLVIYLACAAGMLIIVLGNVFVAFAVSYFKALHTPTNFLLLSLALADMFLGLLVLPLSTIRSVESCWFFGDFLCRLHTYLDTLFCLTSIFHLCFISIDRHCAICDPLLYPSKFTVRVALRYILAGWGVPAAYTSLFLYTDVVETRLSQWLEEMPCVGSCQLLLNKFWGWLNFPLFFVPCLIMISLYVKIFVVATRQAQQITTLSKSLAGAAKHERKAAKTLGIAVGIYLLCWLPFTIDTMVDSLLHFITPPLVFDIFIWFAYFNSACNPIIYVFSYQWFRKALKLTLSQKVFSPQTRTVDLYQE

348 GPCRs [3] = biological target: T3, 348 GPCRs (Homo sapiens, UniProt P21462); details: 10µM, Favipiravir 100μM
T3 sequence (P21462 1-350): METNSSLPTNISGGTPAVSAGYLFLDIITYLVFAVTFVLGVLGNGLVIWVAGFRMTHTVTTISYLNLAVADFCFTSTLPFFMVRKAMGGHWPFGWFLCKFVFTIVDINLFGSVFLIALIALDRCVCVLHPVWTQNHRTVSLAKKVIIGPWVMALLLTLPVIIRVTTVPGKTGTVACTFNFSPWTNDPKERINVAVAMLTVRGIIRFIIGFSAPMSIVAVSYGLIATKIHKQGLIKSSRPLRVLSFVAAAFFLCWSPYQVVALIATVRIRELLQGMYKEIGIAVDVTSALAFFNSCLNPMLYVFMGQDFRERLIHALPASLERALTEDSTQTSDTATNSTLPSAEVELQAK

348 GPCRs [4] = biological target: T4, 348 GPCRs (Homo sapiens, UniProt Q8TDU6); details: 10µM, Favipiravir 100μM
T4 construct: expressed in transfected cells; host or cells: HEK293A
T4 sequence (Q8TDU6 1-330): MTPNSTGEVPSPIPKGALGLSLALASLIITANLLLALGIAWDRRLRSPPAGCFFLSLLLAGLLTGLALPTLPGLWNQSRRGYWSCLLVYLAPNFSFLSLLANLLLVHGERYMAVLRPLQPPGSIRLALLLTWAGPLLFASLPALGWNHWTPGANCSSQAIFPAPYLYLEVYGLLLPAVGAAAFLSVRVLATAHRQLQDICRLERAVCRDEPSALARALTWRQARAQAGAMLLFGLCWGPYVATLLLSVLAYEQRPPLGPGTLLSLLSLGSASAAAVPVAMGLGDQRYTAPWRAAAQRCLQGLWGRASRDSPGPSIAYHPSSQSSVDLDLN

348 GPCRs [5] = biological target: T5, 348 GPCRs (Homo sapiens, UniProt P11229)
T5 sequence (P11229 1-460): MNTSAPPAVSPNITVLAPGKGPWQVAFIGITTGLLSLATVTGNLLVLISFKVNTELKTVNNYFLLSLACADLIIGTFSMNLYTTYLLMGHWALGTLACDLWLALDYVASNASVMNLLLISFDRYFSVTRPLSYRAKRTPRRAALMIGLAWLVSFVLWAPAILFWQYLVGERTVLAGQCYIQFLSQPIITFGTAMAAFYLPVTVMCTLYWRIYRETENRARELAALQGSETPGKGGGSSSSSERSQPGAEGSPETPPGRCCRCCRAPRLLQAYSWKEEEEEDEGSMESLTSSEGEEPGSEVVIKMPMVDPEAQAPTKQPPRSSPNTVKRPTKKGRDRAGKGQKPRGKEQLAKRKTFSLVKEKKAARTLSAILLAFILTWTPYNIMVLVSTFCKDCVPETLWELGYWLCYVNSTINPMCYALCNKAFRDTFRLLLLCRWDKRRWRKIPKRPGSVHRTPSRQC

348 GPCRs [6] = biological target: T6, 348 GPCRs (Homo sapiens, UniProt O00155); details: 10µM, Favipiravir 100μM
T6 construct: expressed in transfected cells; host or cells: HEK293A

348 GPCRs [7] = biological target: T7, 348 GPCRs (Homo sapiens, UniProt P25105)
T7 construct: expressed in transfected cells; host or cells: HEK293A

348 GPCRs [8] = biological target: T8, 348 GPCRs (Homo sapiens, UniProt P33032)
T8 construct: expressed in transfected cells; host or cells: HEK293A

348 GPCRs [9] = biological target: T9, 348 GPCRs (Homo sapiens, UniProt P47893); details: 10µM, Favipiravir 100μM
T9 construct: expressed in transfected cells; host or cells: HEK293A
T9 sequence (P47893 1-321): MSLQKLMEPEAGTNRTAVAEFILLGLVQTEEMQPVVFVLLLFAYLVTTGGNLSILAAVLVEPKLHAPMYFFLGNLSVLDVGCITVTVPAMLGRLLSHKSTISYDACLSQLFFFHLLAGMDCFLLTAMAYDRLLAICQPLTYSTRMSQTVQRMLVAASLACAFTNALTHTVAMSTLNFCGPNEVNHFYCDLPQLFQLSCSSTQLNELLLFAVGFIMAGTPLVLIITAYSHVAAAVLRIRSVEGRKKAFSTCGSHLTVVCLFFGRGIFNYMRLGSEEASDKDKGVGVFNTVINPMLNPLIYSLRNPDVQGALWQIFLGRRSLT

348 GPCRs [10] = biological target: T10, 348 GPCRs (Homo sapiens, UniProt P28336); details: 10µM, Favipiravir 100μM
T10 construct: expressed in transfected cells; host or cells: HEK293A

[11] = read-out: % GPCR activation compared to TPA, HTR4 (5-hydroxytryptamine (serotonin) receptor 4)
[12] = read-out: % GPCR activation compared to TPA, TAAR5 (trace amine associated receptor 5)
[13] = read-out: % GPCR activation compared to TPA, FPR1 (formyl peptide receptor 1)
[14] = read-out: % GPCR activation compared to TPA, GPBA (G protein-coupled bile acid receptor 1)
[15] = read-out: % GPCR activation compared to TPA, GPCR M1 (Muscarinic acetylcholine receptor M1)
[16] = read-out: % GPCR activation compared to TPA, GPR25 (G Protein-Coupled Receptor 25)
[17] = read-out: % GPCR activation compared to TPA, GPCR PAFR (platelet activating factor receptor)
[18] = read-out: % GPCR activation compared to TPA, GPCR MC5R (melanocortin 5 receptor)
[19] = read-out: % GPCR activation compared to TPA, OR3A2 (olfactory receptor, family 3, subfamily A, member 2)
[20] = read-out: % GPCR activation compared to TPA, NMBR (neuromedin B receptor)
[21] = HTR4 (5-hydroxytryptamine (serotonin) receptor 4), read-out: % GPCR activation compared to TPA
[22] = TAAR5 (trace amine associated receptor 5), read-out: % GPCR activation compared to TPA
[23] = FPR1 (formyl peptide receptor 1), read-out: % GPCR activation compared to TPA
[24] = GPBA (G protein-coupled bile acid receptor 1), read-out: % GPCR activation compared to TPA
[25] = GPCR M1 (Muscarinic acetylcholine receptor M1), read-out: % GPCR activation compared to TPA
[26] = GPR25 (G Protein-Coupled Receptor 25), read-out: % GPCR activation compared to TPA
[27] = GPCR PAFR (platelet activating factor receptor), read-out: % GPCR activation compared to TPA
[28] = GPCR MC5R (melanocortin 5 receptor), read-out: % GPCR activation compared to TPA
[29] = OR3A2 (olfactory receptor, family 3, subfamily A, member 2), read-out: % GPCR activation compared to TPA
[30] = NMBR (neuromedin B receptor), read-out: % GPCR activation compared to TPA

T10 sequence (P28336 whole entry): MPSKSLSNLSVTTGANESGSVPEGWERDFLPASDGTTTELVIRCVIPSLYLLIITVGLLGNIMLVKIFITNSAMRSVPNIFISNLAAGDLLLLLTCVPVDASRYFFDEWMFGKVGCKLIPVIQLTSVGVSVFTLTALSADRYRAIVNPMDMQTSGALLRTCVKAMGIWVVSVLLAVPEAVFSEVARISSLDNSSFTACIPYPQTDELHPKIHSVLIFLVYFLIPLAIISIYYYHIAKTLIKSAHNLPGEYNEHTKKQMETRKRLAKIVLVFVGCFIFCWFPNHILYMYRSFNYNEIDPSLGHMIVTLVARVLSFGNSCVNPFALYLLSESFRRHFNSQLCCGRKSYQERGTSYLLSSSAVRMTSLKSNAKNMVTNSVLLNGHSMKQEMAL
T8 sequence (P33032 whole entry): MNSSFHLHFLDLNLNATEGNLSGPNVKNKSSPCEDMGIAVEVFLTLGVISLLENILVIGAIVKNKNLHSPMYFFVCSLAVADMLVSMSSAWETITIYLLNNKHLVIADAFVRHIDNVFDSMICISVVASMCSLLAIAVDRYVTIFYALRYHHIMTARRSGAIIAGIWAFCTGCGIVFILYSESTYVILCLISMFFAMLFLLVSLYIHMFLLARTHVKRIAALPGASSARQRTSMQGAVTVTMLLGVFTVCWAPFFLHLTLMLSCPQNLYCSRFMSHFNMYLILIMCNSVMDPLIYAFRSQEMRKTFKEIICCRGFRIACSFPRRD
T7 sequence (P25105 whole entry): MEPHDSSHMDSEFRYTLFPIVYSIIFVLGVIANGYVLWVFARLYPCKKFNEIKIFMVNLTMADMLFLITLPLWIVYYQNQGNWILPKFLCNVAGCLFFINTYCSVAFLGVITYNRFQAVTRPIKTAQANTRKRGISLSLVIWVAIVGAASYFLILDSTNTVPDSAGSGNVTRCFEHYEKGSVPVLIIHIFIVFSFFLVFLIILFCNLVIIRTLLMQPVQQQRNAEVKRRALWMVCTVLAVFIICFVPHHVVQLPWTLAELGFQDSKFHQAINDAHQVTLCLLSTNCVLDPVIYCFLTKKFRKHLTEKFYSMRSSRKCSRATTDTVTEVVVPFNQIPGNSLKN
T1 sequence (Q13639 whole entry): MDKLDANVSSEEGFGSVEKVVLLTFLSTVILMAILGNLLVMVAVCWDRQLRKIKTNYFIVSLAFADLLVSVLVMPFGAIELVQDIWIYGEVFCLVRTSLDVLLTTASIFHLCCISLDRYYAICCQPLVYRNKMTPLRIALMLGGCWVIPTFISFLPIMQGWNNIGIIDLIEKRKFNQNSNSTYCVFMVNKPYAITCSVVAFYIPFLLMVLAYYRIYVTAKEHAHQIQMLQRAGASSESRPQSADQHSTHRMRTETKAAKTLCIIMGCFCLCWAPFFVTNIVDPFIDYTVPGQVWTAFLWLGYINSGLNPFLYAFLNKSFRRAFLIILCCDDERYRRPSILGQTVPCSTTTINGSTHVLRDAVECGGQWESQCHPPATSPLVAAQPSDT
T6 sequence (O00155 whole entry): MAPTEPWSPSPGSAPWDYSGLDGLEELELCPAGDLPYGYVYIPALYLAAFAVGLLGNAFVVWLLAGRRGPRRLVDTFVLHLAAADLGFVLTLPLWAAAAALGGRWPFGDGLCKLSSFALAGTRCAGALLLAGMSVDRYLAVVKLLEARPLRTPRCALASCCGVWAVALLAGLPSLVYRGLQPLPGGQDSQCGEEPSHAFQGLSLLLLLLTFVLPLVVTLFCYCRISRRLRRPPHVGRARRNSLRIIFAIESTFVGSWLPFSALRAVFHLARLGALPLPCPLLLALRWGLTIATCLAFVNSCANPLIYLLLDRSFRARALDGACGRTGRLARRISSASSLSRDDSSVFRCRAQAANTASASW

Row | SMILES | activation at 100 µM (348 GPCRs [1]; [11]) [%] | activation at 100 µM (348 GPCRs [2]; [12]) [%] | activation at 100 µM (348 GPCRs [3]; [13]) [%] | activation at 10 µM (348 GPCRs [4]; [14]) [%] | activation at 10 µM (348 GPCRs [5]; [15]) [%] | activation at 100 µM (348 GPCRs [6]; [16]) [%] | activation at 10 µM (348 GPCRs [7]; [17]) [%] | activation at 10 µM (348 GPCRs [8]; [18]) [%] | activation at 10 µM (348 GPCRs [9]; [19]) [%] | activation at 10 µM (348 GPCRs [10]; [20]) [%] | activation at 100 µM (348 GPCRs [1]; [21]) [%] | activation at 100 µM (348 GPCRs [2]; [22]) [%] | activation at 100 µM (348 GPCRs [3]; [23]) [%] | activation at 10 µM (348 GPCRs [4]; [24]) [%] | activation at 10 µM (348 GPCRs [5]; [25]) [%] | activation at 100 µM (348 GPCRs [6]; [26]) [%] | activation at 10 µM (348 GPCRs [7]; [27]) [%] | activation at 10 µM (348 GPCRs [8]; [28]) [%] | activation at 10 µM (348 GPCRs [9]; [29]) [%] | activation at 10 µM (348 GPCRs [10]; [30]) [%] | further results
1 | CC(C)OC(=O)[C@H](C)N[P@](=O)(OC[C@H]1O[C@@H](n2ccc(=O)[nH]c2=O)[C@](C)(F)[C@@H]1O)Oc1ccccc1 [sofosbuvir] | -4.08 | -2.96 | -0.986 | -0.805 | -0.631 | -0.661 | -7.19 | -2.87 | -1.07 | -0.697 |  |  |  |  |  |  |  |  |  |  | 
2 | CC(C)C(=O)OC[C@H]1O[C@@H](n2ccc(NO)nc2=O)[C@H](O)[C@@H]1O [molnupiravir] |  |  |  |  |  |  |  |  |  |  | -3.37 | -1.58 | -0.204 | -1.97 | -0.856 | -2.16 | -6.72 | -1.47 | -0.408 | 0.279 | 
3 | NC(=O)c1nc(F)cnc1O [favipiravir, 6-fluoro-3-hydroxy-2-pyrazinecarboxamide] |  |  |  |  |  |  |  |  |  |  | -3.64 | -0.417 | -5.47 | 0.241 |  | -2.15 |  |  | -0.0334 | -0.624 | activation at 100 µM (348 GPCRs [5]; GPCR M1 (Muscarinic acetylcholine receptor M1), 100μM, read-out: % GPCR activation compared to TPA): 0.788%; activation at 100 µM (348 GPCRs [7]; GPCR PAFR (platelet activating factor receptor), 100μM, read-out: % GPCR activation compared to TPA): -0.53%; activation at 100 µM (348 GPCRs [8]; GPCR MC5R (melanocortin 5 receptor), 100μM, read-out: % GPCR activation compared to TPA): -0.921%
4 | N#C[C@@]1(c2ccc3c(N)ncnn23)O[C@H](CO)[C@@H](O)[C@H]1O [GS441524] |  |  |  |  |  |  |  |  |  |  | -1.56 | 0.608 | -4.1 | -1.79 | 0.618 | -1.73 | -1.62 | 0.908 | -9.89 | -1.1 | 
5 | CCC(CC)COC(=O)[C@H](C)N[P@](=O)(OC[C@H]1O[C@@](C#N)(c2ccc3c(N)ncnn23)[C@H](O)[C@@H]1O)Oc1ccccc1 [remdesivir] | -2.24 | 0.868 | -4.31 | -1.26 | 3.01 | -2.29 | 6.57 | 1.31 | -3.15 | 0.461 |  |  |  |  |  |  |  |  |  |  | 
